Source: the NIST ThermoML archive (doi:10.1021/je030117d)
Numbers after ± are expanded uncertainties.

Legend:
[1] = Liquid; for mass density: 298.15 K, 101.33 kPa, Vibrating tube method; for Normal boiling temperature: Ebulliometric method (Recirculating still)
[2] = refractive index (Na D-line) (dimensionless); conditions: 298.15 K; 101.33 kPa; Liquid; Standard Abbe refractometry
[3] = xn = mol fraction of the nth substance listed; conditions: 298.15 K, 101.33 kPa, Liquid, Vibrating tube method

CCCCC(=O)OC [methyl pentanoate]
Conditions	mass density [kg/m3]	refractive index
[1]	884.58 ± 0.46	–
[2]	–	1.3947 ± 0.0008

[1]
Conditions	vapor or sublimation pressure [kPa]
364.75 K	32.01 ± 0.11
365.85 K	33.33 ± 0.11
366.98 K	34.67 ± 0.12
368.03 K	36 ± 0.12
369.05 K	37.33 ± 0.12
370.1 K	38.66 ± 0.12
371.03 K	40.01 ± 0.12
371.97 K	41.33 ± 0.12
372.92 K	42.66 ± 0.13
373.81 K	43.99 ± 0.13
374.7 K	45.33 ± 0.13
375.56 K	46.64 ± 0.13
376.4 K	48.01 ± 0.13
377.18 K	49.33 ± 0.13
378.01 K	50.64 ± 0.13
378.82 K	51.98 ± 0.14
379.59 K	53.33 ± 0.14
380.33 K	54.67 ± 0.14
381.1 K	56 ± 0.14
381.82 K	57.33 ± 0.14
382.51 K	58.67 ± 0.14
383.29 K	59.99 ± 0.15
383.95 K	61.33 ± 0.15
384.62 K	62.68 ± 0.15
385.25 K	63.99 ± 0.15
385.95 K	65.33 ± 0.15
386.57 K	66.66 ± 0.16
387.18 K	67.99 ± 0.16
387.84 K	69.32 ± 0.16
388.44 K	70.66 ± 0.16
389.08 K	71.99 ± 0.16
389.65 K	73.33 ± 0.16
390.24 K	74.65 ± 0.16
390.82 K	76 ± 0.17
391.39 K	77.3 ± 0.17
391.94 K	78.66 ± 0.17
392.5 K	79.99 ± 0.17
393.04 K	81.33 ± 0.17
393.61 K	82.66 ± 0.17
394.12 K	83.98 ± 0.18
394.65 K	85.33 ± 0.18
395.16 K	86.66 ± 0.18
395.69 K	88 ± 0.18
396.2 K	89.33 ± 0.18
396.7 K	90.67 ± 0.19
397.18 K	91.98 ± 0.19
397.67 K	93.35 ± 0.19
398.2 K	94.67 ± 0.19
398.65 K	95.99 ± 0.19
399.15 K	97.32 ± 0.19
399.59 K	98.66 ± 0.2
400.07 K	99.99 ± 0.2
400.54 K	101.32 ± 0.2
401 K	102.66 ± 0.2
401.45 K	104.01 ± 0.2
401.91 K	105.33 ± 0.2
402.3 K	106.66 ± 0.21
402.75 K	107.99 ± 0.21
403.2 K	109.32 ± 0.21
403.62 K	110.58 ± 0.21
404.06 K	111.98 ± 0.21
404.45 K	113.3 ± 0.22
404.88 K	114.66 ± 0.22
405.31 K	115.99 ± 0.22
405.71 K	117.32 ± 0.22
406.12 K	118.69 ± 0.22
406.52 K	119.98 ± 0.22
406.91 K	121.36 ± 0.23
407.3 K	122.64 ± 0.23
407.7 K	124 ± 0.23
408.08 K	125.32 ± 0.23
408.49 K	126.67 ± 0.23
408.85 K	127.99 ± 0.23
409.23 K	129.32 ± 0.23
409.62 K	130.64 ± 0.24
409.98 K	132.01 ± 0.24
410.35 K	133.34 ± 0.24
410.71 K	134.64 ± 0.24
411.07 K	135.99 ± 0.24
411.44 K	137.33 ± 0.25
411.8 K	138.63 ± 0.25
412.15 K	139.99 ± 0.25
412.49 K	141.33 ± 0.25
412.85 K	142.67 ± 0.25
413.21 K	143.99 ± 0.25
413.55 K	145.32 ± 0.26
413.89 K	146.65 ± 0.26
414.22 K	148 ± 0.26
414.55 K	149.34 ± 0.26
414.91 K	150.65 ± 0.26
415.23 K	151.99 ± 0.27
415.57 K	153.32 ± 0.27
415.87 K	154.61 ± 0.27
416.21 K	155.97 ± 0.27
416.55 K	157.29 ± 0.27
416.87 K	158.66 ± 0.27
417.18 K	159.97 ± 0.28

CCCCC(=O)OC [methyl pentanoate] + CCCCCCC
[3]
Conditions	mass density [kg/m3]
x1 = 0.0172	682.12 ± 0.74
x1 = 0.0613	689.72 ± 0.76
x1 = 0.1404	703.9 ± 0.77
x1 = 0.2074	716.09 ± 0.8
x1 = 0.2867	731.09 ± 0.82
x1 = 0.3552	744.33 ± 0.84
x1 = 0.4135	755.77 ± 0.86
x1 = 0.4931	771.88 ± 0.88
x1 = 0.5619	786.14 ± 0.91
x1 = 0.631	800.74 ± 0.93
x1 = 0.7038	816.52 ± 0.95
x1 = 0.7607	828.99 ± 0.98
x1 = 0.8392	846.84 ± 1
x1 = 0.9149	864.2 ± 1
x1 = 0.9531	873.23 ± 1.1
x1 = 0.9836	880.67 ± 1.1

COC=O [methyl methanoate]
Conditions	Normal boiling temperature [°C]	mass density [kg/m3]	refractive index
[1]	31.64 ± 0.2	966.18 ± 0.49	–
[2]	–	–	1.3412 ± 0.0008

COC(C)=O [methyl ethanoate]
Conditions	Normal boiling temperature [°C]	mass density [kg/m3]	refractive index
[1]	56.70 ± 0.2	927.14 ± 0.47	–
[2]	–	–	1.3589 ± 0.0008

CCC(=O)OC [methyl propanoate]
Conditions	Normal boiling temperature [°C]	mass density [kg/m3]	refractive index
[1]	78.50 ± 0.2	908.59 ± 0.47	–
[2]	–	–	1.3745 ± 0.0008

CCC(=O)OC [methyl propanoate] + CCCCCCC
[3]
Conditions	mass density [kg/m3]
x1 = 0.064	687.65 ± 0.62
x1 = 0.1117	694.35 ± 0.64
x1 = 0.1561	700.97 ± 0.69
x1 = 0.2628	718.15 ± 0.74
x1 = 0.365	736.5 ± 0.8
x1 = 0.4343	750.1 ± 0.88
x1 = 0.5113	766.46 ± 0.94
x1 = 0.5683	779.43 ± 1
x1 = 0.6351	795.65 ± 1.1
x1 = 0.7017	812.9 ± 1.1
x1 = 0.7543	827.61 ± 1.2
x1 = 0.8136	845.12 ± 1.3
x1 = 0.8664	861.73 ± 1.4
x1 = 0.903	873.85 ± 1.4
x1 = 0.9689	896.98 ± 1.5

CCCCCCC [heptane]
Conditions	Normal boiling temperature [°C]	mass density [kg/m3]	refractive index
[1]	98.20 ± 0.49	679.3 ± 0.45	–
[2]	–	–	1.3853 ± 0.0007
